Experimental data: patent publication US20250296914A1, “ANTIVIRAL COMPOUNDS AND COMPOSITIONS THEREFROM” (CONSEJO SUPERIOR DE INVESTIGACIONES CIENTÍFICAS, priority 2022, published 2025)
Like-named read-outs stand apart in the source and are kept apart here.

Tested on: SARS-CoV-2 stock strain NL/2020
Experiment: Protective effect against virus-induced cytopathic effect (crystal violet staining of Vero-E6 monolayer)
Format: cell-based
Conditions: Vero-E6, SARS-CoV-2 MOI 0.001, 72 h; for minimal effective concentration / PC MIN (lowest protective concentration): 50 to 0.78 μM tested; for minimal effective concentration: read-out: PC MIN (lowest protective concentration); for EC50: lowest fully protecting concentration averaged with next lower dilution, read-out: ESTIMATED EC50
[1] = Severe acute respiratory syndrome coronavirus 2, Vero C1008, 72 h

SMILES	minimal effective concentration [1] [µM]	EC50 [1] [nM]	PC MIN (lowest protective concentration) [µM]	EC50 [nM]
COC(=O)c1ccccc1NC(C#N)[C@H](Cc1c[nH]c2ccccc12)NC(=O)OC(C)(C)C (stereo partly drawn) [(Iu), methyl 2-(((2S)-2-((tert-butoxycarbonyl)amino)-1-cyano-3-(1H-indol-3-yl)propyl)amino)benzoate]	3.12	2340	–	–
COC(=O)c1c(Br)cccc1NC(C#N)[C@H](Cc1c[nH]c2ccccc12)NC(=O)OC(C)(C)C (stereo partly drawn) [(Ik), methyl 2-bromo-6-(((2S)-2-((tert-butoxycarbonyl)amino)-1-cyano-3-(1H-indol-3-yl)propyl)-amino)benzoate]	1.56	1170	–	–
COC(=O)c1cc(-c2cccc(N(C)C)c2)ccc1NC(C#N)[C@H](Cc1c[nH]c2ccccc12)NC(=O)OC(C)(C)C (stereo partly drawn) [(Iac), methyl 4-(((2S)-2-((tert-butoxycarbonyl)amino)-1-cyano-3-(1H-indol-3-yl)propyl)amino)-3′-(dimethylamino)-[1,1′-biphenyl]-3-carboxylate]	3.12	2340	–	–
COC(=O)c1cc(-c2cccc(N3CCCC3)c2)ccc1NC(C#N)[C@H](Cc1c[nH]c2ccccc12)NC(=O)OC(C)(C)C (stereo partly drawn) [(Iab), methyl 4-(((2S)-2-((tert-butoxycarbonyl)amino)-1-cyano-3-(1H-indol-3-yl)propyl)amino)-3′-(pyrrolidin-1-yl)-[1,1′-biphenyl]-3-carboxylate]	3.12	2340	–	–
CCOc1ncc(-c2ccc(NC(C#N)[C@H](Cc3c[nH]c4ccccc34)NC(=O)OC(C)(C)C)c(C(=O)OC)c2)cn1 (stereo partly drawn) [(Iaf), methyl 2-(((2S)-2-((tert-butoxycarbonyl)amino)-1-cyano-3-(1H-indol-3-yl)propyl)amino)-5-(2-ethoxypyrimidin-5-yl)benzoate]	3.12	2340	–	–
COC(=O)c1cc(-c2ccc(C3CC3)cc2)ccc1NC(C#N)[C@H](Cc1c[nH]c2ccccc12)NC(=O)OC(C)(C)C (stereo partly drawn) [(Im3), methyl 4-(((2S)-2-((tert-butoxycarbonyl)amino)-1-cyano-3-(1H-indol-3-yl)propyl)amino)-4′-(cyclopropyl)-[1,1′-biphenyl]-3-carboxylate]	–	–	3.12	2340
COC(=O)c1cc(-c2ccc(N3CCN(C)CC3)cc2)ccc1NC(C#N)[C@H](Cc1c[nH]c2ccccc12)NC(=O)OC(C)(C)C (stereo partly drawn) [(In), methyl 4-(((2S)-2-((tert-butoxycarbonyl)amino)-1-cyano-3-(1H-indol-3-yl)propyl)amino)-4′-(4-methylpiperazin-1-yl)-[1,1′-biphenyl]-3-carboxylate]	1.56	1170	–	–
COC(=O)c1cc(-c2ccc(C3CC3)cc2)ccc1NC(C#N)[C@H](Cc1c[nH]c2ccccc12)NC(=O)OC(C)(C)C (stereo partly drawn) [(Im2), methyl 4-(((2S)-2-((tert-butoxycarbonyl)amino)-1-cyano-3-(1H-indol-3-yl)propyl)amino)-4′-cyclopropyl-[1,1′-biphenyl]-3-carboxylate]	–	–	1.56	1170
CCc1cccc(-c2ccc(NC(C#N)[C@H](Cc3c[nH]c4ccccc34)NC(=O)OC(C)(C)C)c(C(=O)OC)c2)c1 (stereo partly drawn) [(Iaa), methyl 4-(((2S)-2-((tert-butoxycarbonyl)amino)-1-cyano-3-(1H-indol-3-yl)propyl)amino)-3′-ethyl-[1,1′-biphenyl]-3-carboxylate]	3.12	2340	–	–
COC(=O)c1cc(-c2cccc(C(C)(C)C)c2)ccc1NC(C#N)[C@H](Cc1c[nH]c2ccccc12)NC(=O)OC(C)(C)C (stereo partly drawn) [(Iz), methyl 4-(((2S)-2-((tert-butoxycarbonyl)amino)-1-cyano-3-(1H-indol-3-yl)propyl)amino)-3′-(tert-butyl)-[1,1′-biphenyl]-3-carboxylate]	3.12	2340	–	–
COC(=O)c1cc(-c2ccc(OC)nc2)ccc1NC(C#N)[C@H](Cc1c[nH]c2ccccc12)NC(=O)OC(C)(C)C (stereo partly drawn) [(It), methyl 2-(((2S)-2-((tert-butoxycarbonyl)amino)-1-cyano-3-(1H-indol-3-yl)propyl)amino)-5-(6-methoxypyridin-3-yl)benzoate]	1.56	1170	–	–
CCN(CC)c1ccc(-c2ccc(NC(C#N)[C@H](Cc3c[nH]c4ccccc34)NC(=O)OC(C)(C)C)c(C(=O)OC)c2)cc1 (stereo partly drawn) [(Ix), methyl 4-(((2S)-2-((tert-butoxycarbonyl)amino)-1-cyano-3-(1H-indol-3-yl)propyl)amino)-4′-(diethylamino)-[1,1′-biphenyl]-3-carboxylate]	3.12	2340	–	–
COC(=O)c1cc(-c2ccc(N3CCN(C(C)C)CC3)nc2)ccc1NC(C#N)[C@H](Cc1c[nH]c2ccccc12)NC(=O)OC(C)(C)C (stereo partly drawn) [(Iae), methyl 2-(((2S)-2-((tert-butoxycarbonyl)amino)-1-cyano-3-(1H-indol-3-yl)propyl)amino)-5-(6-(4-isopropylpiperazin-1-yl)pyridin-3-yl)benzoate]	3.12	2340	–	–
CC(C)(C)OC(=O)N[C@@H](Cc1c[nH]c2ccccc12)C(C#N)Nc1ccccc1Br (stereo partly drawn) [(Iaj), (3S)-2-((2-bromophenyl)amino)-4-(1H-indol-3-yl)-3-(tert-butoxycarbonylamino) butanenitrile]	6.25	4690	–	–
CCCCc1ccc(-c2ccc(NC(C#N)[C@H](Cc3c[nH]c4ccccc34)NC(=O)OC(C)(C)C)c(C(=O)OC)c2)cc1 (stereo partly drawn) [(Iw), methyl 4-(((2S)-2-((tert-butoxycarbonyl)amino)-1-cyano-3-(1H-indol-3-yl)propyl)amino)-4′-butyl-[1,1′-biphenyl]-3-carboxylate]	–	2340	3.12	–
COC(=O)c1cc(-c2cccc(OC(F)(F)F)c2)ccc1NC(C#N)[C@H](Cc1c[nH]c2ccccc12)NC(=O)OC(C)(C)C (stereo partly drawn) [(Iad), methyl 4-(((2S)-2-((tert-butoxycarbonyl)amino)-1-cyano-3-(1H-indol-3-yl)propyl)amino)-3′-(trifluoromethoxy)-[1,1′-biphenyl]-3-carboxylate]	3.12	2340	–	–
COC(=O)c1cc(-c2ccc(C)nc2)ccc1NC(C#N)[C@H](Cc1c[nH]c2ccccc12)NC(=O)OC(C)(C)C (stereo partly drawn) [(Ir), methyl 2-(((2S)-2-((tert-butoxycarbonyl)amino)-1-cyano-3-(1H-indol-3-yl)propyl)amino)-5-(6-methylpyridin-3-yl)benzoate]	1.56	1170	–	–
CCCOc1ccc(-c2ccc(NC(C#N)[C@H](Cc3c[nH]c4ccccc34)NC(=O)OC(C)(C)C)c(C(=O)OC)c2)cc1 (stereo partly drawn) [(Iy), methyl 4-(((2S)-2-((tert-butoxycarbonyl)amino)-1-cyano-3-(1H-indol-3-yl)propyl)amino)-4′-propoxy-[1,1′-biphenyl]-3-carboxylate]	3.12	2340	–	–
COC(=O)c1cc(-c2ccc(C3CC3)cc2)ccc1NC(C#N)[C@H](Cc1c[nH]c2ccccc12)NC(=O)OC(C)(C)C (stereo partly drawn) [(Im1), methyl 4-(((2S)-2-((tert-butoxycarbonyl)amino)-1-cyano-3-(1H-indol-3-yl)propyl)amino)-4′-cyclopropyl-[1,1′-biphenyl]-3-carboxylate]	–	–	1.56	1170
